Experimental data from patent US20130012497A1, “METHODS FOR DETECTING ADHD SUSCEPTIBILITY AND […] AND LONG TERM OUTCOME OF ADHD SYMPTOMS” (The United States of America, as represented by the …, priority 2011, published 2013).

System: ADHD symptoms
Assay: Treatment response to stimulant medication on the SWAN scale, by LPHN3-11q genotype
Assay type: in vivo, human
Conditions: 82 individuals, US1 sample
Procedure: Eighty-two individuals with complete genotype and phenotype information were sampled from the original 240 trios in the US1 sample of Example 1. A comparative analyses regarding stimulant treatment was done as described in Arcos-Burgos et al., Mol. Psychiatry, 15(11): 1053-66 (2010). An analysis was performed to determine the relationship of SWAN scale (Strengths and Weaknesses of ADHD Symptoms and Normal Behavior scale) questions individually as well as inattentive and hyperactive combined dimensions (questions 1-9 indicate inattentive symptoms and questions 10-18 indicate hyperactive symptoms), prior to and after starting treatment with the stimulant methylphenidate.

`COC(=O)C(c1ccccc1)C1CCCCN1` (centres unmarked) [methylphenidate] was tested, and the “response to stimulant medication treatment (SWAN scale)” value (individuals having AA at rs6551665 and fewer than two copies of the susceptibility haplotype on 11q) was “poor response” and the “change of symptoms after treatment with stimulant medication (SWAN scale question 18, hyperactive-impulsive dimension)” value (individuals having GG at rs6551665 and two copies of the susceptibility haplotype on 11q) was “significant improvement of symptoms”.
